Experimental data: ChEMBL document CHEMBL3885861, “Open TG-GATES”

Species on record: Rattus norvegicus
Assay: Open TG-GATES - Regimen: Daily Repeat
Format: toxicity, organism-based, Sprague-Dawley
Parameters: regimen Daily Repeat, gender Male, age 6 weeks
Details: in vivo, po, 1000 mg/kg, route gavage, dose level High; for APTT / Bas / Eos / Fbg / Hb / Ht / Lym / MCH / MCHC / MCV / Mono / Neu / PT / Plat / RBC / Ret / WBC: tissue Blood; for KIDNEY_L / KIDNEY_R / KIDNEY_TOTAL: tissue Kidney; for LIVER: tissue Liver; for A/G / ALP / ALT / AST / BUN / CRE / Ca / Cl / DBIL / GLC / IP / K / LDH / Na / PL / RALB / TBIL / TC / TG / TP / gamma-GTP: tissue Plasma

Work on O=C(OC[C@H]1O[C@@H](OC(=O)c2cc(O)c(O)c(OC(=O)c3cc(O)c(O)c(O)c3)c2)[C@H](OC(=O)c2cc(O)c(O)c(OC(=O)c3cc(O)c(O)c(O)c3)c2)[C@@H](OC(=O)c2cc(O)c(O)c(OC(=O)c3cc(O)c(O)c(O)c3)c2)[C@@H]1OC(=O)c1cc(O)c(O)c(OC(=O)c2cc(O)c(O)c(O)c2)c1)c1cc(O)c(O)c(OC(=O)c2cc(O)c(O)c(O)c2)c1 [TANNIC ACID] yielded a TERMINAL_BW (72 h, time 3 day) of 216.2 g, an APTT (72 h, time 3 day) of 17 s and a Bas (72 h, time 3 day) of 0%. The Eos (72 h, time 3 day) was 1.4%, the Fbg (72 h, time 3 day) was 234.6 mg/dL and the Hb (72 h, time 3 day) was 13.2 g/dL. The Ht (72 h, time 3 day) was 39.6%, the Lym (72 h, time 3 day) was 67.8% and the MCH (72 h, time 3 day) was 21.3 pg. The MCHC (72 h, time 3 day) was 33.3%, the MCV (72 h, time 3 day) was 63.8 fL and the Mono (72 h, time 3 day) was 10.2%. It also gave a Neu (72 h, time 3 day) of 20.6%, a PT (72 h, time 3 day) of 11.6 s and a Plat (72 h, time 3 day) of 110.8 x10_4/uL. For the same compound, the RBC (72 h, time 3 day) was 621.4 x10_4/ul, the Ret (72 h, time 3 day) was 7.9% and the WBC (72 h, time 3 day) was 91.3 x10_2/uL. For the same compound, the KIDNEY_L (72 h, time 3 day) was 1 g, the KIDNEY_R (72 h, time 3 day) was 1 g and the KIDNEY_TOTAL (72 h, time 3 day) was 1.9 g. The LIVER (72 h, time 3 day) was 10.6 g, the A/G (72 h, time 3 day) was 2 and the ALP (72 h, time 3 day) was 818.6 IU/L. The ALT (72 h, time 3 day) was 42.6 IU/L, the AST (72 h, time 3 day) was 65.6 IU/L and the BUN (72 h, time 3 day) was 17.6 mg/dL. The CRE (72 h, time 3 day) was 0.4 mg/dL, the Ca (72 h, time 3 day) was 10.9 mg/dL and the Cl (72 h, time 3 day) was 104.2 meq/L. For the same compound, the DBIL (72 h, time 3 day) was 0.004 mg/dL, the GLC (72 h, time 3 day) was 204.4 mg/dL and the IP (72 h, time 3 day) was 7.9 mg/dL. The K (72 h, time 3 day) was 4.6 meq/L, the LDH (72 h, time 3 day) was 81.6 IU/L and the Na (72 h, time 3 day) was 139.4 meq/L. It also gave a PL (72 h, time 3 day) of 152.8 mg/dL, an RALB (72 h, time 3 day) of 3.6 g/dL and a TBIL (72 h, time 3 day) of 0.4 mg/dL. It also gave a TC (72 h, time 3 day) of 85 mg/dL, a TG (72 h, time 3 day) of 88.6 mg/dL and a TP (72 h, time 3 day) of 5.5 g/dL. For the same compound, the gamma-GTP (72 h, time 3 day) was 1.2 IU/L, the TERMINAL_BW ([…], time 7 day) was 253.1 g and the TERMINAL_BW ([…], time 14 day) was 291.2 g. It also gave a TERMINAL_BW ([…], time 28 day) of 390.8 g, an APTT ([…], time 7 day) of 17.3 s and a Bas ([…], time 7 day) of 0%. The Eos ([…], time 7 day) was 1%, the Fbg ([…], time 7 day) was 227.4 mg/dL and the Hb ([…], time 7 day) was 13.3 g/dL. It also gave a Ht ([…], time 7 day) of 40%, a Lym ([…], time 7 day) of 72% and an MCH ([…], time 7 day) of 21.8 pg. For the same compound, the MCHC ([…], time 7 day) was 33.3%, the MCV ([…], time 7 day) was 65.5 fL and the Mono ([…], time 7 day) was 6%. For the same compound, the Neu ([…], time 7 day) was 21.2%, the PT ([…], time 7 day) was 11.3 s and the Plat ([…], time 7 day) was 121.1 x10_4/uL. It also gave an RBC ([…], time 7 day) of 610.4 x10_4/ul, a Ret ([…], time 7 day) of 7.4% and a WBC ([…], time 7 day) of 103.9 x10_2/uL. The APTT ([…], time 14 day) was 16.4 s, the Bas ([…], time 14 day) was 0% and the Eos ([…], time 14 day) was 1%. For the same compound, the Fbg ([…], time 14 day) was 241.2 mg/dL, the Hb ([…], time 14 day) was 14.5 g/dL and the Ht ([…], time 14 day) was 43.2%. For the same compound, the Lym ([…], time 14 day) was 74.8%, the MCH ([…], time 14 day) was 20.5 pg and the MCHC ([…], time 14 day) was 33.4%. It also gave an MCV ([…], time 14 day) of 61.3 fL, a Mono ([…], time 14 day) of 9.4% and a Neu ([…], time 14 day) of 14.8%. It also gave a PT ([…], time 14 day) of 11.5 s, a Plat ([…], time 14 day) of 121.1 x10_4/uL and an RBC ([…], time 14 day) of 705.6 x10_4/ul. For the same compound, the Ret ([…], time 14 day) was 4.7%, the WBC ([…], time 14 day) was 116.2 x10_2/uL and the APTT ([…], time 28 day) was 16 s. The Bas ([…], time 28 day) was 0%, the Eos ([…], time 28 day) was 1.6% and the Fbg ([…], time 28 day) was 225.2 mg/dL. It also gave a Hb ([…], time 28 day) of 14.4 g/dL, a Ht ([…], time 28 day) of 43% and a Lym ([…], time 28 day) of 78.2%. For the same compound, the MCH ([…], time 28 day) was 19.4 pg, the MCHC ([…], time 28 day) was 33.5% and the MCV ([…], time 28 day) was 57.9 fL. It also gave a Mono ([…], time 28 day) of 7.6%, a Neu ([…], time 28 day) of 12.6% and a PT ([…], time 28 day) of 11.6 s. It also gave a Plat ([…], time 28 day) of 118.3 x10_4/uL, an RBC ([…], time 28 day) of 741.4 x10_4/ul and a Ret ([…], time 28 day) of 3.1%. It also gave a WBC ([…], time 28 day) of 130.6 x10_2/uL, a KIDNEY_L ([…], time 7 day) of 1.1 g and a KIDNEY_R ([…], time 7 day) of 1.1 g. The KIDNEY_TOTAL ([…], time 7 day) was 2.2 g, the KIDNEY_L ([…], time 14 day) was 1.1 g and the KIDNEY_R ([…], time 14 day) was 1.1 g. It also gave a KIDNEY_TOTAL ([…], time 14 day) of 2.3 g, a KIDNEY_L ([…], time 28 day) of 1.4 g and a KIDNEY_R ([…], time 28 day) of 1.4 g. The KIDNEY_TOTAL ([…], time 28 day) was 2.8 g, the LIVER ([…], time 7 day) was 12.1 g and the LIVER ([…], time 14 day) was 12.9 g. For the same compound, the LIVER ([…], time 28 day) was 16.8 g, the A/G ([…], time 7 day) was 1.7 and the ALP ([…], time 7 day) was 897.4 IU/L. The ALT ([…], time 7 day) was 34.2 IU/L, the AST ([…], time 7 day) was 60 IU/L and the BUN ([…], time 7 day) was 16.2 mg/dL. For the same compound, the CRE ([…], time 7 day) was 0.5 mg/dL, the Ca ([…], time 7 day) was 10.8 mg/dL and the Cl ([…], time 7 day) was 103.2 meq/L. The DBIL ([…], time 7 day) was 0.012 mg/dL, the GLC ([…], time 7 day) was 200.4 mg/dL and the IP ([…], time 7 day) was 8 mg/dL. For the same compound, the K ([…], time 7 day) was 4.6 meq/L, the LDH ([…], time 7 day) was 93.4 IU/L and the Na ([…], time 7 day) was 136.6 meq/L. The PL ([…], time 7 day) was 125.4 mg/dL, the RALB ([…], time 7 day) was 3.7 g/dL and the TBIL ([…], time 7 day) was 0.4 mg/dL. The TC ([…], time 7 day) was 62.6 mg/dL, the TG ([…], time 7 day) was 91 mg/dL and the TP ([…], time 7 day) was 5.9 g/dL. The gamma-GTP ([…], time 7 day) was 1 IU/L, the A/G ([…], time 14 day) was 1.9 and the ALP ([…], time 14 day) was 720.4 IU/L. The ALT ([…], time 14 day) was 35.4 IU/L, the AST ([…], time 14 day) was 58.6 IU/L and the BUN ([…], time 14 day) was 17.8 mg/dL. For the same compound, the CRE ([…], time 14 day) was 0.5 mg/dL, the Ca ([…], time 14 day) was 10.7 mg/dL and the Cl ([…], time 14 day) was 104.6 meq/L. It also gave a DBIL ([…], time 14 day) of 0.024 mg/dL, a GLC ([…], time 14 day) of 204.2 mg/dL and an IP ([…], time 14 day) of 8.3 mg/dL. The K ([…], time 14 day) was 4.6 meq/L, the LDH ([…], time 14 day) was 87.6 IU/L and the Na ([…], time 14 day) was 140.4 meq/L. The PL ([…], time 14 day) was 145.2 mg/dL, the RALB ([…], time 14 day) was 3.8 g/dL and the TBIL ([…], time 14 day) was 0.4 mg/dL. It also gave a TC ([…], time 14 day) of 70.4 mg/dL, a TG ([…], time 14 day) of 115.8 mg/dL and a TP ([…], time 14 day) of 5.8 g/dL. For the same compound, the gamma-GTP ([…], time 14 day) was 0.8 IU/L, the A/G ([…], time 28 day) was 1.8 and the ALP ([…], time 28 day) was 573 IU/L. The ALT ([…], time 28 day) was 31.6 IU/L, the AST ([…], time 28 day) was 54 IU/L and the BUN ([…], time 28 day) was 20.4 mg/dL. It also gave a CRE ([…], time 28 day) of 0.5 mg/dL, a Ca ([…], time 28 day) of 10.7 mg/dL and a Cl ([…], time 28 day) of 105.8 meq/L. It also gave a DBIL ([…], time 28 day) of 0.006 mg/dL, a GLC ([…], time 28 day) of 199.2 mg/dL and an IP ([…], time 28 day) of 7.8 mg/dL. For the same compound, the K ([…], time 28 day) was 4.5 meq/L, the LDH ([…], time 28 day) was 87.8 IU/L and the Na ([…], time 28 day) was 139 meq/L. It also gave a PL ([…], time 28 day) of 152.6 mg/dL, an RALB ([…], time 28 day) of 3.8 g/dL and a TBIL ([…], time 28 day) of 0.4 mg/dL. It also gave a TC ([…], time 28 day) of 73.4 mg/dL, a TG ([…], time 28 day) of 139.4 mg/dL and a TP ([…], time 28 day) of 6 g/dL. For the same compound, the gamma-GTP ([…], time 28 day) was 1 IU/L.
